Assay results reported in ChEMBL document CHEMBL2069197 (ACS Med Chem Lett, 2012).
In brackets after ≈: the same amount, converted by molar mass.

Key:
[1] = Neuroprotective activity in cortical neurons assessed as reduction in glutamate-induced cell death at 5 uM incubated for 24 hrs prior to glutamate-challenge measured after 24 hrs by MTT assay; type: functional, Cortical neurone; parameters: scale not given: the % may be the effect or the level left
[2] = Stability in cortical neurons assessed as drug metabolism at 5 uM; type: ADME; conditions: cortical neurone
[3] = Aqueous solubility of the compound in phosphate buffered saline after 90 mins by laser nephelometry at pH 7.4; type: physicochemical
[4] = Aqueous solubility of the compound in phosphate buffered saline after 90 mins by laser nephelometry at pH 4; type: physicochemical
[5] = Half life in aqueous media at pH 7; type: physicochemical; conditions: for half-life: aqueous media; for t1/2: buffer
Rattus norvegicus [6] = assay: Drug metabolism in Sprague-Dawley rat plasma assessed as progesterone formation at 4 mg/kg, iv; type: ADME, organism-based; parameters: dose 4 mg/kg, route intravenous; conditions: in vivo
Rattus norvegicus [7] = assay: Neuroprotective activity in rat assessed as reduction in bilateral cortical contusion-induced cerebral edema at 4 mg/kg, iv administered as single dose 1 hr post-injury measured after 24 hrs relative to untreated; type: functional; parameters: scale not given: the % may be the effect or the level left
in vivo = conditions: Sprague-Dawley, rat, plasma, iv, 4 mg/kg
Description: Half life in Sprague-Dawley rat plasma at 4 mg/kg, iv

[8] = Drug metabolism in rat liver S9 fraction assessed as progesterone formation; type: ADME, subcellular
Liver = assay: Metabolic stability in rat liver S9 fraction assessed as compound remaining; type: ADME, subcellular
Rattus norvegicus [9] = assay: Metabolic stability in Sprague-Dawley rat assessed as compound remaining at 10 mg/kg, iv administered as single dose by LC-MS/MS analysis; type: ADME, organism-based; parameters: dose 10 mg/kg, route intravenous; conditions: in vivo
Rattus norvegicus [10] = assay: Drug metabolism in Sprague-Dawley rat assessed as free oxime formation at 10 mg/kg, iv administered as single dose by LC-MS/MS analysis; type: ADME, organism-based; parameters: dose 10 mg/kg, route intravenous; conditions: in vivo
Rattus norvegicus [11] = assay: Drug metabolism in Sprague-Dawley rat assessed as progesterone formation at 10 mg/kg, iv administered as single dose by LC-MS/MS analysis; type: ADME, organism-based; parameters: dose 10 mg/kg, route intravenous; conditions: in vivo
Rattus norvegicus [12] = assay: Neuroprotective activity in rat assessed as reduction in bilateral cortical contusion-induced cerebral edema at 8 mg/kg, ip administered at 1 hr post-injury followed by 8 mg/kg, sc administered 6 hrs post-injury measured after 24 hrs relative to untreated control; type: functional; parameters: scale not given: the % may be the effect or the level left
Rattus norvegicus [13] = assay: Drug metabolism in Sprague-Dawley rat assessed as compound remaining at 10 mg/kg, im administered as single dose by LC-MS/MS analysis; type: ADME, organism-based; parameters: dose 10 mg/kg, route intramuscular; conditions: in vivo
Rattus norvegicus [14] = assay: Drug metabolism in Sprague-Dawley rat assessed as free oxime formation at 10 mg/kg, im administered as single dose by LC-MS/MS analysis; type: ADME, organism-based; parameters: dose 10 mg/kg, route intramuscular; conditions: in vivo
Rattus norvegicus [15] = assay: Drug metabolism in Sprague-Dawley rat assessed as progesterone formation at 10 mg/kg, im administered as single dose by LC-MS/MS analysis; type: ADME, organism-based; parameters: dose 10 mg/kg, route intramuscular; conditions: in vivo
Plasma [16] = assay: Drug metabolism rat plasma assessed as free oxime formation at 10 uM by LC-MS/MS analysis; type: ADME, cell-free
[17] = Drug metabolism in rat liver S9 fraction assessed as free oxime formation; type: ADME, subcellular
Plasma [18] = assay: Drug metabolism human plasma assessed as free oxime formation at 10 uM by LC-MS/MS analysis; type: ADME, cell-free
[19] = Neuroprotective activity in cortical neurons assessed as reduction in glutamate-induced cell death at 10 uM incubated for 24 hrs prior to glutamate-challenge measured after 24 hrs by MTT assay; type: functional, Cortical neurone; parameters: scale not given: the % may be the effect or the level left
[20] = Neuroprotective activity in cortical neurons assessed as reduction in glutamate-induced cell death at 1 uM incubated for 24 hrs prior to glutamate-challenge measured after 24 hrs by MTT assay; type: functional, Cortical neurone; parameters: scale not given: the % may be the effect or the level left
[21] = Neuroprotective activity in cortical neurons assessed as reduction in glutamate-induced cell death at 20 uM incubated for 24 hrs prior to glutamate-challenge measured after 24 hrs by MTT assay; type: functional, Cortical neurone; parameters: scale not given: the % may be the effect or the level left
[22] = Half life in human plasma; type: ADME, cell-free

Compound	Activity [1]	Stability [2]	solubility kinetic at 1.5 h [3]	solubility kinetic at 1.5 h [4]	half-life [5]	also measured
CC(=O)[C@H]1CC[C@H]2[C@@H]3CCC4=C/C(=N/O)CC[C@]4(C)[C@H]3CC[C@]12C	21%	Stable	< 45 µM	< 45 µM	> 240 h	Drug metabolism (Rattus norvegicus [6]): Not Active; Activity (Rattus norvegicus [7]): 60%; half-life (in vivo): 2.7 h
C/C(=N\O)[C@H]1CC[C@H]2[C@@H]3CCC4=CC(=O)CC[C@]4(C)[C@H]3CC[C@]12C	–	Stable	–	–	–	Drug metabolism [8]: Not Active; Stability (Liver): Stable
CO/N=C(\C)[C@H]1CC[C@H]2[C@@H]3CCC4=CC(=O)CC[C@]4(C)[C@H]3CC[C@]12C	–	Stable	< 25 µM	< 25 µM	> 240 h	–
C/C(=N\OCCN1CCOCC1)[C@H]1CC[C@H]2[C@@H]3CCC4=CC(=O)CC[C@]4(C)[C@H]3CC[C@]12C	26%	Stable	108 µM (≈ 47.8 µg/mL)	> 450 µM	> 240 h	–
CC(=O)O/N=C(\C)[C@H]1CC[C@H]2[C@@H]3CCC4=CC(=O)CC[C@]4(C)[C@H]3CC[C@]12C	–	Stable	100 µM (≈ 37.2 µg/mL)	180 µM (≈ 66.9 µg/mL)	–	–
C/C(=N\OC(=O)[C@@H](N)C(C)C)[C@H]1CC[C@H]2[C@@H]3CCC4=CC(=O)CC[C@]4(C)[C@H]3CC[C@]12C.Cl	24%	Stable	146 µM	> 645 µM	11.3 h	Stability (Rattus norvegicus [9]): Unstable; Drug metabolism (Rattus norvegicus [10]): Active; Drug metabolism (Rattus norvegicus [11]): Active; Activity (Rattus norvegicus [12]): 56%; Stability (Rattus norvegicus [13]): Unstable; Drug metabolism (Rattus norvegicus [14]): Active; Drug metabolism (Rattus norvegicus [15]): Not Active; Drug metabolism (Plasma [16]): Active; Drug metabolism [17]: Active; Drug metabolism [8]: Active; Drug metabolism (Plasma [18]): Active
C/C(=N\OC(=O)[C@@H]1CCCN1)[C@H]1CC[C@H]2[C@@H]3CCC4=CC(=O)CC[C@]4(C)[C@H]3CC[C@]12C	21%	Stable	34 µM (≈ 14.5 µg/mL)	395 µM (≈ 169 µg/mL)	–	Activity [19]: 33%
C/C(=N\OC(=O)[C@@H]1CCC[N+]1(C)C)[C@H]1CC[C@H]2[C@@H]3CCC4=CC(=O)CC[C@]4(C)[C@H]3CC[C@]12C.[I-]	–	Stable	51 µM	345 µM	0.833 h	–
C/C(=N\OC(=O)CN(C)C)[C@H]1CC[C@H]2[C@@H]3CCC4=CC(=O)CC[C@]4(C)[C@H]3CC[C@]12C	–	Stable	171 µM (≈ 70.9 µg/mL)	449 µM (≈ 186 µg/mL)	–	–
C/C(=N\OC(=O)C[N+](C)(C)C)[C@H]1CC[C@H]2[C@@H]3CCC4=CC(=O)CC[C@]4(C)[C@H]3CC[C@]12C.[I-]	–	Stable	45 µM	> 540 µM	0.933 h	–
C/C(=N\OC(=O)CN1CCOCC1)[C@H]1CC[C@H]2[C@@H]3CCC4=CC(=O)CC[C@]4(C)[C@H]3CC[C@]12C	–	Stable	215 µM (≈ 98.2 µg/mL)	215 µM (≈ 98.2 µg/mL)	–	–
C/C(=N\OC(=O)CN1CCN(C)CC1)[C@H]1CC[C@H]2[C@@H]3CCC4=CC(=O)CC[C@]4(C)[C@H]3CC[C@]12C	–	Stable	145 µM (≈ 68.1 µg/mL)	153 µM (≈ 71.9 µg/mL)	70.6 h	–
C/C(=N\OC(=O)c1cccnc1)[C@H]1CC[C@H]2[C@@H]3CCC4=CC(=O)CC[C@]4(C)[C@H]3CC[C@]12C	20%	Stable	< 35 µM	< 35 µM	–	t1/2 [5]: ND(Insoluble)
C/C(=N\OC(=O)c1ccc[n+](C)c1)[C@H]1CC[C@H]2[C@@H]3CCC4=CC(=O)CC[C@]4(C)[C@H]3CC[C@]12C.[I-]	0%	Stable	212 µM	349 µM	3.1 h	Activity [20]: 14%
C/C(=N\OC(=O)c1ccc(CN)cc1)[C@H]1CC[C@H]2[C@@H]3CCC4=CC(=O)CC[C@]4(C)[C@H]3CC[C@]12C.Cl	–	Stable	< 30 µM	< 30 µM	–	t1/2 [5]: ND(Insoluble)
C/C(=N\OC(=O)c1ccc(CN2CCN(C)CC2)cc1)[C@H]1CC[C@H]2[C@@H]3CCC4=CC(=O)CC[C@]4(C)[C@H]3CC[C@]12C	–	Stable	< 30 µM	< 30 µM	–	t1/2 [5]: ND(Insoluble)
C/C(=N\OC(=O)C1CCNCC1)[C@H]1CC[C@H]2[C@@H]3CCC4=CC(=O)CC[C@]4(C)[C@H]3CC[C@]12C.Cl	4%	Stable	247 µM	247 µM	94.8 h	Activity [19]: 24%
C/C(=N\OC(=O)C1CCN(C)CC1)[C@H]1CC[C@H]2[C@@H]3CCC4=CC(=O)CC[C@]4(C)[C@H]3CC[C@]12C	–	Stable	108 µM (≈ 49.1 µg/mL)	> 660 µM	–	–
C/C(=N\OC(=O)C1CC[N+](C)(C)CC1)[C@H]1CC[C@H]2[C@@H]3CCC4=CC(=O)CC[C@]4(C)[C@H]3CC[C@]12C.[I-]	0%	Stable	> 500 µM	> 500 µM	70.6 h	–
C/C(=N\OC(=O)[C@@H]1CCCNC1)[C@H]1CC[C@H]2[C@@H]3CCC4=CC(=O)CC[C@]4(C)[C@H]3CC[C@]12C.Cl	–	Stable	428 µM	> 500 µM	38.5 h	–
C/C(=N\OC(=O)[C@H]1CCCNC1)[C@H]1CC[C@H]2[C@@H]3CCC4=CC(=O)CC[C@]4(C)[C@H]3CC[C@]12C.Cl	–	Stable	314 µM	314 µM	40.8 h	–
CC(=O)[C@H]1CC[C@H]2[C@@H]3CCC4=C/C(=N/OC(=O)[C@@H](N)C(C)C)CC[C@]4(C)[C@H]3CC[C@]12C.Cl	27%	Stable	172 µM	322 µM	10.1 h	Stability (Rattus norvegicus [9]): Unstable; Drug metabolism (Rattus norvegicus [10]): Active; Drug metabolism (Rattus norvegicus [11]): Active; Activity (Rattus norvegicus [12]): 59%; Stability (Rattus norvegicus [13]): Unstable; Drug metabolism (Rattus norvegicus [14]): Active; Drug metabolism (Rattus norvegicus [15]): Not Active; Drug metabolism (Plasma [16]): Active; Drug metabolism (Plasma [18]): Active
CC(=O)[C@H]1CC[C@H]2[C@@H]3CCC4=CC(=O)CC[C@]4(C)[C@H]3CC[C@]12C [PROGESTERONE]	4%	–	< 25 µM	< 25 µM	> 240 h	Activity [21]: 42%; Activity (Rattus norvegicus [12]): 62%; half-life [22]: 0.417 h
